As usually defined, the Ki is a measure of affinity in units of concentration, obtained from inhibition or displacement.

Activity calls are given as the source filed them.

Results on three compounds are retold here after ChEMBL document CHEMBL1201862, “PubChem BioAssay data set” (2004).

Dual specificity mitogen-activated protein kinase kinase 1, sequence (Q02750 whole entry): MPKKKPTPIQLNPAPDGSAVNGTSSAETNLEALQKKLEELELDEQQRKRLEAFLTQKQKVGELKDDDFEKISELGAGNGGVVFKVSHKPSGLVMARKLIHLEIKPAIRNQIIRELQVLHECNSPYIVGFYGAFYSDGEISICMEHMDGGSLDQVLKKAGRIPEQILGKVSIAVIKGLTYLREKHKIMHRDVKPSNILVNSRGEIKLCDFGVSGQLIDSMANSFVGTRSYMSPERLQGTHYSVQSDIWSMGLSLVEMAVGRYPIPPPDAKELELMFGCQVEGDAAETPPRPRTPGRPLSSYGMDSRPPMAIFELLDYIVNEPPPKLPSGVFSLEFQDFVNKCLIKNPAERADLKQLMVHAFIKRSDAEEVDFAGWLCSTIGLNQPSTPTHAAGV

In the first assay the target is T1, cAMP-dependent protein kinase catalytic subunit PRKX (Homo sapiens, UniProt P51817).
T1 sequence (P51817 whole entry): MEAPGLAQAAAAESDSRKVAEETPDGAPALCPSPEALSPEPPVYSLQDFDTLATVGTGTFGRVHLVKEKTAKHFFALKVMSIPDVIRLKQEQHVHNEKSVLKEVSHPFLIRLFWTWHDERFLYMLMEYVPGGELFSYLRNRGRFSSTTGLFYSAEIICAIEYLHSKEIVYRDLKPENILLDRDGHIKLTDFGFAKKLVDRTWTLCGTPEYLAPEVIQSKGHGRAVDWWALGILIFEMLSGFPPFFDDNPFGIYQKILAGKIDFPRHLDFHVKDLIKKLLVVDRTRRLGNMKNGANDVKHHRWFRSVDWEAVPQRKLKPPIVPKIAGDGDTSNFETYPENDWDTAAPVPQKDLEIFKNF
It is filed as functional.
As to `Cc1ccc(C)c(NC(=O)c2cc(-c3ccco3)nc3ccccc23)c1`, the Ki is 1 µM (active).

Turning to `COc1ccc(C2=NNc3cccc4c(OC)ccc2c34)cc1OC`, the Ki is 0.398 µM (active).

As to `CN1CCC(c2c(O)cc(O)c3c(=O)cc(-c4ccccc4Cl)oc23)C(O)C1` (configuration not stated), the Ki was > 3.16 µM (inactive).

Another assay has as its target T2, Receptor-type tyrosine-protein kinase FLT3 (Homo sapiens, UniProt P36888).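 Further: FLT3 was tested as one member of a kinome-wide kinase panel.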
T2 sequence (P36888 whole entry): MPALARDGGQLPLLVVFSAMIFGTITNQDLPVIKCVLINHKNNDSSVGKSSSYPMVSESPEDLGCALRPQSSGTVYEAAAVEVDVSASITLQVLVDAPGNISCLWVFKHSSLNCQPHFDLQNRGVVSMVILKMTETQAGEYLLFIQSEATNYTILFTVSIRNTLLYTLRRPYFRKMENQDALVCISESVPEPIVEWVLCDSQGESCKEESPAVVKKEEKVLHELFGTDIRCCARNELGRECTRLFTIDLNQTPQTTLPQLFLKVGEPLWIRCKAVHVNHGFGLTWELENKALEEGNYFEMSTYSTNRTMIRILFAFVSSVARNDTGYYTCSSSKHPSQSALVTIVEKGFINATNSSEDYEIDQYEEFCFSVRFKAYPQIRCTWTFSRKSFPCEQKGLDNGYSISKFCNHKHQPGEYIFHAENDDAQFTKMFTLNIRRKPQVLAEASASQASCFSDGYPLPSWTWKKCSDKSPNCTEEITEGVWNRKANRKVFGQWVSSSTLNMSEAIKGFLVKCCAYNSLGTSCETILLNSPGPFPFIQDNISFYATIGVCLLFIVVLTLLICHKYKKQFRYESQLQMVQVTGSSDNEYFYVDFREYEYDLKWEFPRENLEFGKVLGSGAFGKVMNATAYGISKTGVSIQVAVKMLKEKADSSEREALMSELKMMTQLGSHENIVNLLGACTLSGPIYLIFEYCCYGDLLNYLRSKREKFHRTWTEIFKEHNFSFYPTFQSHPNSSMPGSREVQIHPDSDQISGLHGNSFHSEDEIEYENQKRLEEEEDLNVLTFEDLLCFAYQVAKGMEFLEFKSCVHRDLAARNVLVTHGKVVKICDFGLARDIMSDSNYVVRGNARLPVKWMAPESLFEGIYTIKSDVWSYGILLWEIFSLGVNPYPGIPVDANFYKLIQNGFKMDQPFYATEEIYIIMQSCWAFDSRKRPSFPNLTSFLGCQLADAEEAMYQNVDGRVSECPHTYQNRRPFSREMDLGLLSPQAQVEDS
Type of assay: functional.
With `Cc1ccc(C)c(NC(=O)c2cc(-c3ccco3)nc3ccccc23)c1`, the Ki is > 3.16 µM (inactive).

For `COc1ccc(C2=NNc3cccc4c(OC)ccc2c34)cc1OC`, the Ki was 2.51 µM (active).

As for `CN1CCC(c2c(O)cc(O)c3c(=O)cc(-c4ccccc4Cl)oc23)C(O)C1` (configuration not stated), the Ki was > 2.51 µM (inactive).

Another assay concerns the target Dual specificity mitogen-activated protein kinase kinase 1 (Homo sapiens, UniProt Q02750). As to the kind of experiment: Navigating the Kinome. Panel member name: MAP2K1. Type of assay: functional.
Consider `Cc1ccc(C)c(NC(=O)c2cc(-c3ccco3)nc3ccccc23)c1`, for which the Ki is > 3.16 µM (inactive).

Take `COc1ccc(C2=NNc3cccc4c(OC)ccc2c34)cc1OC`: the Ki is > 3.16 µM (inactive).

Take `CN1CCC(c2c(O)cc(O)c3c(=O)cc(-c4ccccc4Cl)oc23)C(O)C1` (configuration not stated): the Ki is > 3.16 µM (inactive).

A further assay has as its target T3, Serine/threonine-protein kinase Nek2 (Homo sapiens, UniProt P51955).
T3 sequence (P51955 whole entry): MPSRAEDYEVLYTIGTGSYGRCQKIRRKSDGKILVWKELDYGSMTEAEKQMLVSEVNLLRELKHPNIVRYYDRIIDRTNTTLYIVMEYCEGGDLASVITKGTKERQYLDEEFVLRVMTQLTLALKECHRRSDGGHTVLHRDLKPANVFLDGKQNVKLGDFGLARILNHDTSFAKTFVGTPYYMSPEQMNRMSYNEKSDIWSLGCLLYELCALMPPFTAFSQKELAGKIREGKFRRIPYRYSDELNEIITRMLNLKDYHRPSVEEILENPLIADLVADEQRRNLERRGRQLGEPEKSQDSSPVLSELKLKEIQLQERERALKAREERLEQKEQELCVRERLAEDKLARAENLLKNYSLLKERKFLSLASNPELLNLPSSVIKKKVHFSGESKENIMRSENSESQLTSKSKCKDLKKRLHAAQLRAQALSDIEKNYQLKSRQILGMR
Type of assay: functional.
Regarding `Cc1ccc(C)c(NC(=O)c2cc(-c3ccco3)nc3ccccc23)c1`, the inhibition constant (Ki) is 1.26 µM (active).

Consider `COc1ccc(C2=NNc3cccc4c(OC)ccc2c34)cc1OC`, for which the Ki was 0.2 µM (active).

For `CN1CCC(c2c(O)cc(O)c3c(=O)cc(-c4ccccc4Cl)oc23)C(O)C1` (configuration not stated), the Ki was > 6.31 µM (inactive).

The target of the next assay is Platelet-derived growth factor receptor alpha (Homo sapiens, UniProt P16234). As to the kind of experiment: Navigating the Kinome. Panel member name: PDGFRA. Type of assay: functional.
Platelet-derived growth factor receptor alpha, sequence (P16234 whole entry): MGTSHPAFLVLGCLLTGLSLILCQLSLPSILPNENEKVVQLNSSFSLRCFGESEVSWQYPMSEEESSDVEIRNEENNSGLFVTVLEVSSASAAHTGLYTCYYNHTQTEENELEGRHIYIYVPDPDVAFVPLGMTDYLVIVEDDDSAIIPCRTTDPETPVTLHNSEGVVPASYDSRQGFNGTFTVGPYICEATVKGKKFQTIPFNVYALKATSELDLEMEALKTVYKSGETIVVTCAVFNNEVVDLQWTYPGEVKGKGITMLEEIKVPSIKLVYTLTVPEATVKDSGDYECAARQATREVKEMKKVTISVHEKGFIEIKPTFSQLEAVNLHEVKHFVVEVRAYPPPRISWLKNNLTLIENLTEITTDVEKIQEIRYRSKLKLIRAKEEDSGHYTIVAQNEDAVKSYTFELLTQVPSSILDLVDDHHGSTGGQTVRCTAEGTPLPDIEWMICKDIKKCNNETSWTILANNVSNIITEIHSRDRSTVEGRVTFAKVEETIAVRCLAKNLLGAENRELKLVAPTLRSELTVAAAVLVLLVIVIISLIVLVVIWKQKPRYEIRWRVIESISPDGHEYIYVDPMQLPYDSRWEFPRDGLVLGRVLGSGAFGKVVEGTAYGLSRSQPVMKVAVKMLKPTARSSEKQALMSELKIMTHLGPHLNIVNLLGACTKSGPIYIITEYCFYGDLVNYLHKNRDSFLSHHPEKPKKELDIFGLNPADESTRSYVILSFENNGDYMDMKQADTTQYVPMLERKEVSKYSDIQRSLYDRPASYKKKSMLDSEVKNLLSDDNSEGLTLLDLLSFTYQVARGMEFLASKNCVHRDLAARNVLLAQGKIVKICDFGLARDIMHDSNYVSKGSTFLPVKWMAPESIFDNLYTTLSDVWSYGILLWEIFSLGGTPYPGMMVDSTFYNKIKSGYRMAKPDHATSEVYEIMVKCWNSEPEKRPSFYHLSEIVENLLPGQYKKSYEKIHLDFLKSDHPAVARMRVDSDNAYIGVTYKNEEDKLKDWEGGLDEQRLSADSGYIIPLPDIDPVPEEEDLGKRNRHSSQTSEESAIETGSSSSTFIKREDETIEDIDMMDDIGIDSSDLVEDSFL
Regarding `Cc1ccc(C)c(NC(=O)c2cc(-c3ccco3)nc3ccccc23)c1`, the Ki is 2 µM (active).

With `COc1ccc(C2=NNc3cccc4c(OC)ccc2c34)cc1OC`, the Ki was 0.2 µM (active).

Take `CN1CCC(c2c(O)cc(O)c3c(=O)cc(-c4ccccc4Cl)oc23)C(O)C1` (configuration not stated): the Ki is > 2.51 µM (inactive).

The next assay deals with Mitogen-activated protein kinase 9 (Homo sapiens, UniProt P45984). It is filed as functional.
Mitogen-activated protein kinase 9, sequence (P45984 whole entry): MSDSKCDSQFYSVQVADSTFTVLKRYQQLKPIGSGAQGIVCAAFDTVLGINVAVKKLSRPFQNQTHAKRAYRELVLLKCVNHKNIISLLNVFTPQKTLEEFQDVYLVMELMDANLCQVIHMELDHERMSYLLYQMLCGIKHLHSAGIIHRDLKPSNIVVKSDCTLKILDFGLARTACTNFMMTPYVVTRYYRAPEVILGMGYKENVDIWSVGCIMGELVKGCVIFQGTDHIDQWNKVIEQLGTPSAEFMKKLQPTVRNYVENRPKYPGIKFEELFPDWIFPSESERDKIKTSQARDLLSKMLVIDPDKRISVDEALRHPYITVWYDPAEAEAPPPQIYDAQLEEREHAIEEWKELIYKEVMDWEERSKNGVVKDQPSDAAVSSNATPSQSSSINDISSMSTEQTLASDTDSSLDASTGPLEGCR
Take `Cc1ccc(C)c(NC(=O)c2cc(-c3ccco3)nc3ccccc23)c1`: the Ki was > 3.98 µM (inactive).

In the case of `COc1ccc(C2=NNc3cccc4c(OC)ccc2c34)cc1OC`, the inhibition constant Ki is 3.16 µM (active).

As to `CN1CCC(c2c(O)cc(O)c3c(=O)cc(-c4ccccc4Cl)oc23)C(O)C1` (configuration not stated), the Ki is > 3.98 µM (inactive).

The next assay concerns the target T4, Tyrosine-protein kinase receptor TYRO3 (Homo sapiens, UniProt Q06418).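 Further: TYRO3 value obtained as one member of a kinome-wide profiling panel.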
T4 sequence (Q06418 whole entry): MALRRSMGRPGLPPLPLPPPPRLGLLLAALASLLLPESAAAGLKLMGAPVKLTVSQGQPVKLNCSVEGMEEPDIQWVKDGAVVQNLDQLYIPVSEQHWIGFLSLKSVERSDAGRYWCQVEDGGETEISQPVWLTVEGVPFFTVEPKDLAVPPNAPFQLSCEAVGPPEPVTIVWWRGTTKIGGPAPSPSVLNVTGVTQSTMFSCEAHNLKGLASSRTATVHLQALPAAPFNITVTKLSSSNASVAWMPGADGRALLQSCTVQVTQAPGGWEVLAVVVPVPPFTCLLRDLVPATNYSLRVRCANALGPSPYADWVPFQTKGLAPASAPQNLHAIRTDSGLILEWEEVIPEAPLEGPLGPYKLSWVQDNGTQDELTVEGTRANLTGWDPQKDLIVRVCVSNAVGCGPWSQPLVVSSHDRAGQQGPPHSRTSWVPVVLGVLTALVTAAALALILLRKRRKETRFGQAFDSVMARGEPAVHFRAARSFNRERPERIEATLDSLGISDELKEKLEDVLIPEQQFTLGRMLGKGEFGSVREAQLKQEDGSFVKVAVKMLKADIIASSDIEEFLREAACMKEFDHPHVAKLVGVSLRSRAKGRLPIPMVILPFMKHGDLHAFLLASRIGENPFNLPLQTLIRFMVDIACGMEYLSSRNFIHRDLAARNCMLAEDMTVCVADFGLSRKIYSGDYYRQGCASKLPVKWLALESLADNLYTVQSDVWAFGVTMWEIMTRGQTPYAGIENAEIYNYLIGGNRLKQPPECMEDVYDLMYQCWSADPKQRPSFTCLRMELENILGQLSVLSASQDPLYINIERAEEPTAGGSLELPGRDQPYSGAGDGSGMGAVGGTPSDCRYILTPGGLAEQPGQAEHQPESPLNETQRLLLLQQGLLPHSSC
Type of assay: functional.
With `Cc1ccc(C)c(NC(=O)c2cc(-c3ccco3)nc3ccccc23)c1`, the Ki is 0.316 µM (active).

Regarding `COc1ccc(C2=NNc3cccc4c(OC)ccc2c34)cc1OC`, the Ki is 1 µM (active).

Take `CN1CCC(c2c(O)cc(O)c3c(=O)cc(-c4ccccc4Cl)oc23)C(O)C1` (configuration not stated): the Ki is > 2.51 µM (inactive).

Another assay deals with Rho-associated protein kinase 1 (Homo sapiens, UniProt Q13464). Type of assay: functional.
Rho-associated protein kinase 1, sequence (Q13464 whole entry): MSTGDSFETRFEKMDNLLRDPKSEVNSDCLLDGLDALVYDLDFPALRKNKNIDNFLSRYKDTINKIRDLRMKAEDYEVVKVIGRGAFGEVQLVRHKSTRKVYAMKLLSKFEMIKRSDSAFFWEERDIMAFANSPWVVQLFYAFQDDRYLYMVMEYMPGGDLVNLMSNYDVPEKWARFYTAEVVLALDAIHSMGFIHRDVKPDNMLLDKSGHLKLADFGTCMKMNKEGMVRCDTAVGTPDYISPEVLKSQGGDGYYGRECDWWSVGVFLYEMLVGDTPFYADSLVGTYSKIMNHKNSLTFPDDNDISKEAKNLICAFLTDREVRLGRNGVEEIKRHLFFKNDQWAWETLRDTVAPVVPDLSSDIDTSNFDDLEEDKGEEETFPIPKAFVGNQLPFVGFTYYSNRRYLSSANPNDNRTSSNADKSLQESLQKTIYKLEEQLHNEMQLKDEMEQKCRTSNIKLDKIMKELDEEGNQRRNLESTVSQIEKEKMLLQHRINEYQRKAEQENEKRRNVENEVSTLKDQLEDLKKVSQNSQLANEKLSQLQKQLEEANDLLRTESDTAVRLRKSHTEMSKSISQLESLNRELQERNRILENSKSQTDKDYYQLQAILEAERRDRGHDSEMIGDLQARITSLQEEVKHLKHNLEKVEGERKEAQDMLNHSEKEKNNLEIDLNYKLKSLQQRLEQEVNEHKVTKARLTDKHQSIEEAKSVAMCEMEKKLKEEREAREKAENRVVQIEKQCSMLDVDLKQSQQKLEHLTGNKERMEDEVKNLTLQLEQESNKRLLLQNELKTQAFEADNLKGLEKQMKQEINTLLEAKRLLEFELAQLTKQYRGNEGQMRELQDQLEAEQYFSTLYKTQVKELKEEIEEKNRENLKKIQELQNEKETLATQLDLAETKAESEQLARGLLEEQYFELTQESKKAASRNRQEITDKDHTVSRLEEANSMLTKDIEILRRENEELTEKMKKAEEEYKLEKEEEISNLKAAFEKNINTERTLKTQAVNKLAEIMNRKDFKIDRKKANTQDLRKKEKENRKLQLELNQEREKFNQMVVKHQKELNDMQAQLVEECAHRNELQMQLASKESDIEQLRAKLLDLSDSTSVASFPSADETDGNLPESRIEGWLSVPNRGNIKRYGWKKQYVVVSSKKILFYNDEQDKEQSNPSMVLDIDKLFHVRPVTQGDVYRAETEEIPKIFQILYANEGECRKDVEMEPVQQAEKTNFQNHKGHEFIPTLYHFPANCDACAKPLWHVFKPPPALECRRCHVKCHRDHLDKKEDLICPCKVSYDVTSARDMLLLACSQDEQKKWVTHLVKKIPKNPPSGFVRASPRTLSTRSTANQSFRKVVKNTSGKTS
Consider `Cc1ccc(C)c(NC(=O)c2cc(-c3ccco3)nc3ccccc23)c1`, for which the Ki was > 3.98 µM (inactive).

Regarding `COc1ccc(C2=NNc3cccc4c(OC)ccc2c34)cc1OC`, the Ki is 0.501 µM (active).

As to `CN1CCC(c2c(O)cc(O)c3c(=O)cc(-c4ccccc4Cl)oc23)C(O)C1` (configuration not stated), the Ki was > 6.31 µM (inactive).

In another assay the target is Macrophage-stimulating protein receptor (Homo sapiens, UniProt Q04912). As to the kind of experiment: Navigating the Kinome. Panel member name: MST1R. Type of assay: functional.
Macrophage-stimulating protein receptor, sequence (Q04912 25-304 limits assumed): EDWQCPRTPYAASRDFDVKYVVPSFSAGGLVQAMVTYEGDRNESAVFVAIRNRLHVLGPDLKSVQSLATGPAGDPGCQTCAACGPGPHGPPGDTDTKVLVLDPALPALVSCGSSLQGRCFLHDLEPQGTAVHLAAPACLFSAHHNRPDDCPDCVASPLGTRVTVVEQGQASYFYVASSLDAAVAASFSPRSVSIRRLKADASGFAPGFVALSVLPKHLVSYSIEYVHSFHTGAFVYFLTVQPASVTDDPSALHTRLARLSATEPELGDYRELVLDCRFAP
Macrophage-stimulating protein receptor, sequence (Q04912 310-1400 limits assumed): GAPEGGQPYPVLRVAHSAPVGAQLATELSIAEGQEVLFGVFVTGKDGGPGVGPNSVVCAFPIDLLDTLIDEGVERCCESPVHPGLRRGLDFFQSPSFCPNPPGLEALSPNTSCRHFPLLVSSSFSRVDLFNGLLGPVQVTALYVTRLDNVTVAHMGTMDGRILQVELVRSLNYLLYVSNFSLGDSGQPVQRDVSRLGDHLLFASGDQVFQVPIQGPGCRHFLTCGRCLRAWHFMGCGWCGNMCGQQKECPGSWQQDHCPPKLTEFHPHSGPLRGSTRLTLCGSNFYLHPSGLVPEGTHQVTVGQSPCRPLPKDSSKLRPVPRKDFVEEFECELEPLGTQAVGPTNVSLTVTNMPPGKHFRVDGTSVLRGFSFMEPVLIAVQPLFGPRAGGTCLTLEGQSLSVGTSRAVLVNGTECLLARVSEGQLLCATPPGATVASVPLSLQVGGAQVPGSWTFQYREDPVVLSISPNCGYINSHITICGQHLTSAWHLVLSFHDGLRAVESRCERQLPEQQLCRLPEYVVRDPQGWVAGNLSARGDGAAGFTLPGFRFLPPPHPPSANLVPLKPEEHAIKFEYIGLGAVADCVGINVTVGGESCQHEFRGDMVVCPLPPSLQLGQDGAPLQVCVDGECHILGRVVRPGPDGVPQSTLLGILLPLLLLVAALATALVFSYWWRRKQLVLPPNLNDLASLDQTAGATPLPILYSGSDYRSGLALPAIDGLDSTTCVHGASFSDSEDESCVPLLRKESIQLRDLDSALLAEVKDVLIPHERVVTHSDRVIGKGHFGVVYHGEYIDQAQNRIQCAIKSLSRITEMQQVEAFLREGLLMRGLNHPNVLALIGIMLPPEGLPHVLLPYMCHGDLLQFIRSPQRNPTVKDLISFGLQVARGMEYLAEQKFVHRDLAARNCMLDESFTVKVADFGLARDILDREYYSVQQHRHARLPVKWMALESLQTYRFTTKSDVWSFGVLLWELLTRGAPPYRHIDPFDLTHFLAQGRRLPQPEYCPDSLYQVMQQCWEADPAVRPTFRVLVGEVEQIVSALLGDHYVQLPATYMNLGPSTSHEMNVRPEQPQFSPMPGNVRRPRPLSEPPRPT
In the case of `Cc1ccc(C)c(NC(=O)c2cc(-c3ccco3)nc3ccccc23)c1`, the Ki is 3.98 µM (active).

Consider `COc1ccc(C2=NNc3cccc4c(OC)ccc2c34)cc1OC`, for which the Ki is 0.501 µM (active).

For `CN1CCC(c2c(O)cc(O)c3c(=O)cc(-c4ccccc4Cl)oc23)C(O)C1` (configuration not stated), the Ki was > 3.98 µM (inactive).
